PubChem BioAssay AID540323 (Johns Hopkins Ion Channel Center, 2011)
Activity calls are given as the source filed them.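 How the source made its calls: active means peak hERG channel inhibition above 30% at some tested dose, together with a fitted dose response curve; inactive means no hERG inhibition at any dose, or no curve.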

target: Voltage-gated inwardly rectifying potassium channel KCNH2 (Homo sapiens) (UniProt Q12809); assay: hERG channel inhibition, SAR follow-up, selectivity assay for KCNK9 inhibitor project, FluxOR Tl flux, hERG cells, CRC 2 (AID 540323); settings: hERG-expressing cells, FluxOR thallium flux fluorescence; at 30 µM (top of the series); test wells contain dofetilide at its IC70
Sequence (Q12809 whole entry, looked up): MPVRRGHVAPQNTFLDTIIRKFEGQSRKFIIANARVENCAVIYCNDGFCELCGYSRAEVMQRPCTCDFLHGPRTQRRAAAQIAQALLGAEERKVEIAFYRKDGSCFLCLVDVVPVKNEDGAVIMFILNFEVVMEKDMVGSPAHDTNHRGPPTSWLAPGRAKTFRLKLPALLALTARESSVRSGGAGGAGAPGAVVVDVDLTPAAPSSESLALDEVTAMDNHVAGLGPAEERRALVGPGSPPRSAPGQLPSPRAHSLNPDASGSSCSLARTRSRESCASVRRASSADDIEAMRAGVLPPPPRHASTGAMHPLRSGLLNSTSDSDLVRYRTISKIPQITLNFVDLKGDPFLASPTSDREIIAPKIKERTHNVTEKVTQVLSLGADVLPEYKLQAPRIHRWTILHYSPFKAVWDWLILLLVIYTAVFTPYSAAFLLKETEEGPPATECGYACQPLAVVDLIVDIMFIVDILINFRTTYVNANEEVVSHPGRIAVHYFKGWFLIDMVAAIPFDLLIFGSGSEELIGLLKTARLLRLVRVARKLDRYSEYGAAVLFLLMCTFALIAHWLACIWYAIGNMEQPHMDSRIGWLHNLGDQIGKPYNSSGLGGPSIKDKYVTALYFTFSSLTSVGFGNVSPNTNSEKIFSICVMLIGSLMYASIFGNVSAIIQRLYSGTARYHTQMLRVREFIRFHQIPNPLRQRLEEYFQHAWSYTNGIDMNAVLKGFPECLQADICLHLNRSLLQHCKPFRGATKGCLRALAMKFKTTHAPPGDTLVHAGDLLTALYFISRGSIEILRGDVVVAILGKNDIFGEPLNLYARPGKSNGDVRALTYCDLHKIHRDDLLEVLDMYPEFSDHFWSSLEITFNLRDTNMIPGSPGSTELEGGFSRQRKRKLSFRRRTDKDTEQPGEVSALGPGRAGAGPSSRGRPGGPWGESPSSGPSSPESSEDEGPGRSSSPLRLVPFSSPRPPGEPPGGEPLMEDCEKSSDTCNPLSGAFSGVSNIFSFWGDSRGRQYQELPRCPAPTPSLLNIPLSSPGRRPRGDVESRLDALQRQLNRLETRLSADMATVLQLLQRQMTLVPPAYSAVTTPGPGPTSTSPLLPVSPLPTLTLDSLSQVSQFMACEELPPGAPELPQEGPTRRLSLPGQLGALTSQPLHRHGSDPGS

Row | SMILES | fluorescence ratio, lower = inhibition
1 | Cc1cccc(C(=O)Nc2cccc(NC(=O)c3ccccc3C)c2)c1 | inactive
2 | CC(C1CC2CCC1C2)n1c(-c2ccccc2)n[nH]c1=S (stereo not drawn) | inactive
3 | O=C(Nc1cccc(NC(=O)c2ccc(F)cc2)c1)c1ccccc1 | inactive
4 | Cc1cccc(C(=O)Nc2cccc(NC(=O)c3ccccc3OC(F)(F)F)c2)c1 | inactive
5 | CC(C1CC2CCC1C2)n1c(-c2ccco2)n[nH]c1=S (stereo not drawn) | inactive
6 | CC(C1CC2CCC1C2)n1c(-c2ccccc2Cl)n[nH]c1=S (stereo not drawn) | inactive
7 | CCOc1ccccc1NC(=O)c1cccc(NC(=O)c2ccccc2OC)c1 | inactive
8 | Cc1ccccc1-c1n[nH]c(=S)n1C(C)C1CC2CCC1C2 (stereo not drawn) | inactive
